Patent US4927922A, “7β-(substituted)amino-3-substituted cephalosporanic acids and esters” (American Cyanamid Company, priority 1988, dated 1990)
≈ marks a conversion by molar mass, not a printed value. Where “and” joins values, the source holds several entries; their conditions need not be identical. Equal entries are not always repeated. Where two headings read alike, the source gives them in different places.

Tests used:
Assay in all cases: in vitro agar dilution test (MIC)
Assay type in all cases: cell-based
[1] = tested on: Staphylococcus FU 79-19-2β^+; details: Mueller-Hinton agar
Method: (§1) The compounds of the present invention are active antibacterial agents as established in the in vitro agar dilution test using Mueller-Hinton agar. The test compounds were dissolved in a mixture of dimethyl sulfoxide and aqueous sodium bicarbonate and applied as 1 ml of drug solution plus 9 ml of agar per plate. The innoculum was a 5 hour TSB shake culture diluted to 10^-2 with Mueller-Hinton broth and applied to the plates with a Steers' Replicator.
(§2) The results of this test on representative compounds of this invention (identified by Example Number) against a variety of microorganisms appear in Tables I and II in terms of minimal inhibitory concentration (MIC) in mcg/ml together with Cefotaxime, Cephalothin and Ampicillin as positive controls.

[2] = tested on: Providencia stuarti K 81-29; details: K8129, Mueller-Hinton agar
Method: as §1, §2

Pseudomonas SSC 78-13 = details: SSC7813, Mueller-Hinton agar
Method: as §1, §2

Proteus rettgheri K 77-6 = details: Mueller-Hinton agar
Method: as §1, §2

[3] = tested on: Enterobacter aerogenes STFD 79-14; details: Klebsiella aerogenes, STFD7914, Enterobacter aerogenes STFD 79-14; Mueller-Hinton agar
Method: as §1, §2

Salmonella SSC 79-57 = details: SSC7957, Mueller-Hinton agar
Method: as §1, §2

Pseudomonas 12-4-4 = details: Mueller-Hinton agar
Method: as §1, §2

Enterococcus OSU 75-1 = details: Mueller-Hinton agar
Method: as §1, §2

Acinetobacter STFD 79-17 = details: Mueller-Hinton agar
Method: as §1, §2

[4] = tested on: Providencia stuarti SSC 80-78; details: SSC8078, Mueller-Hinton agar
Method: as §1, §2

[5] = tested on: Pseudomonas aeruginosa ATCC 27853; details: Mueller-Hinton agar
Method: as §1, §2

Proteus rettgheri N 76-1 = details: Mueller-Hinton agar
Method: as §1, §2

Staphylococcus Smith = details: Mueller-Hinton agar, Table I
Method: as §1, §2

Serratia QHC 77-2 = details: QHC772, Serratia QHC 77-2, Mueller-Hinton agar
Method: as §1, §2

Escherichia coli 311 = details: Escherichia coli, 311, Escherichia coli 311; Mueller-Hinton agar
Method: as §1, §2

Acinetobacter K 77-1 = details: K771, Acinetobacter K 77-1, Mueller-Hinton agar
Method: as §1, §2

[6] = tested on: Staphylococcus SSC 79-18β^-; details: Mueller-Hinton agar
Method: as §1, §2

Klebsiella pneumoniae AD = details: Mueller-Hinton agar, Table I
Method: as §1, §2

[7] = tested on: Escherichia coli ATCC 25922; details: ATCC25922, Escherichia coli ATCC 25922, Mueller-Hinton agar, Table I
Method: as §1, §2

Klebsiella SSC 78-1 = details: SSC781, Klebsiella SSC 78-1, Mueller-Hinton agar
Method: as §1, §2

Enterococcus SM 77-15 = details: SM7715, Enterococcus SM 77-15, Mueller-Hinton agar
Method: as §1, §2

[8] = tested on: Enterobacter cloacae K 79-16; details: K7916, Enterobacter cloacae K 79-16, Mueller-Hinton agar
Method: as §1, §2

[9] = tested on: Salmonella ariz. QHC 77-3; details: Mueller-Hinton agar
Method: as §1, §2

[10] = tested on: Staphylococcus ATCC 25923; details: ATCC25923, Staphylococcus ATCC 25923, Mueller-Hinton agar, Table I
Method: as §1, §2

Klebsiella STFD 79-6 = details: STFD796, Klebsiella STFD 79-6, Mueller-Hinton agar
Method: as §1, §2

Serratia TUL 78-15 = details: TUL7815, Serratia TUL 78-15, Mueller-Hinton agar
Method: as §1, §2

[11] = tested on: Escherichia coli ESS 22-31; details: ESS2231, Mueller-Hinton agar
Method: as §1, §2

Proteus morganii K 79-25 = details: Morganella morganii, K7925, Proteus morganii K 79-25; Mueller-Hinton agar
Method: as §1, §2

[12] = tested on: Escherichia coli STFD 79-20; details: STFD7920, Escherichia coli STFD 79-20, Mueller-Hinton agar
Method: as §1, §2

[13] = tested on: Micrococcus lutea PCI 1001; details: PCI1001, Micrococcus lutea PCI 1001, Mueller-Hinton agar
Method: as §1, §2

[14] = Pseudomonas, 1244, Pseudomonas 12-4-4, read-out: MIC
[15] = Enterococcus, OSU751, Enterococcus OSU 75-1, read-out: MIC
[16] = Acinetobacter, STFD7917, Acinetobacter STFD 79-17, read-out: MIC
[17] = Pseudomonas aeruginosa, ATCC27853, Pseudomonas aeruginosa ATCC 27853, read-out: MIC

SMILES | MIC ([1]; Staphylococcus, read-out: MIC) [µg/mL] | MIC (Pseudomonas SSC 78-13) [µg/mL] | MIC [3] [µg/mL] | MIC (Salmonella SSC 79-57) [µg/mL] | MIC (Pseudomonas 12-4-4; [14]) [µg/mL] | MIC (Enterococcus OSU 75-1; [15]) [µg/mL] | MIC (Acinetobacter STFD 79-17; [16]) [µg/mL] | MIC [5, 17] [µg/mL] | MIC (Proteus rettgheri N 76-1) [µg/mL] | MIC (Staphylococcus Smith; Staphylococcus, read-out: MIC) [µg/mL] | MIC (Serratia QHC 77-2) [µg/mL] | MIC (Escherichia coli 311) [µg/mL] | MIC (Acinetobacter K 77-1) [µg/mL] | MIC [6] [µg/mL] | MIC (Klebsiella pneumoniae AD) [µg/mL] | MIC [7] [µg/mL] | MIC (Klebsiella SSC 78-1) [µg/mL] | MIC (Enterococcus SM 77-15) [µg/mL] | MIC [8] [µg/mL] | MIC [9] [µg/mL] | other results
CO/N=C(\C(=O)N[C@@H]1C(=O)N2C(C(=O)O)=C(COC(C)=O)CS[C@H]12)c1csc(N)n1 [Cefotaxime, 3-[(acetyloxy)methyl]-7β-[[(2-amino-4-thiazolyl)(methoxyimino)acetyl]amino]-8-oxo-5-thia-1-azabicyclo[4.2.0]oct-2-ene-2-carboxylic acid, reference compound] | 4 (≈ 8.78 µM) | 32 (≈ 70.3 µM) | 0.03 (≈ 0.0659 µM) | 0.25 (≈ 0.549 µM) | 16 (≈ 35.1 µM) | 128 (≈ 281 µM) | 8 (≈ 17.6 µM) | 16 (≈ 35.1 µM) | ≤ 0.015 | 1 (≈ 2.2 µM) | – | – | – | – | – | – | – | – | – | – | MIC [1]: 8 µg/mL (≈ 17.6 µM); MIC [2]: 0.25 µg/mL (≈ 0.549 µM); MIC (Proteus rettgheri K 77-6): ≤ 0.06 µg/mL; MIC (Pseudomonas 12-4-4; Pseudomonas 12-4-4): 8 µg/mL (≈ 17.6 µM); MIC (Enterococcus OSU 75-1; Enterococcus OSU 75-1): 64 µg/mL and > 128 µg/mL; MIC (Acinetobacter STFD 79-17; Acinetobacter STFD 79-17): 16 µg/mL (≈ 35.1 µM); MIC [4]: ≤ 0.06 µg/mL; MIC ([5]; Pseudomonas aeruginosa ATCC 27853): 32 µg/mL (≈ 70.3 µM); MIC (Staphylococcus Smith): 2 µg/mL (≈ 4.39 µM)
CO/N=C(\C(=O)N[C@@H]1C(=O)N2C(C(=O)O)=C(CSc3nnsc3-c3ccccc3)CS[C@H]12)c1csc(N)n1 [Example 1, (Z)-7-[[(2-Amino-4-thiazolyl)(methoxyimino)acetyl]amino]-8-oxo-3-[[(5-phenyl-1,2,3-thiadiazol-4-yl)thio]mehtyl]-5-thia-1-azabicyclo[4.2.0]oct-2-ene-2-carboxylic acid] | 4 (≈ 6.78 µM) | 128 (≈ 217 µM) | 1 (≈ 1.7 µM) | 4 (≈ 6.78 µM) | > 128 | 128 (≈ 217 µM) | 16 (≈ 27.1 µM) | 128 (≈ 217 µM) | ≤ 0.015 | 1 (≈ 1.7 µM) | 8 (≈ 13.6 µM) | 0.5 (≈ 0.848 µM) | 4 (≈ 6.78 µM) | 1 (≈ 1.7 µM) | 0.25 (≈ 0.424 µM) | 0.12 (≈ 0.203 µM) | 0.5 (≈ 0.848 µM) | 64 (≈ 109 µM) | 4 (≈ 6.78 µM) | 1 (≈ 1.7 µM) | MIC [10]: 2 µg/mL (≈ 3.39 µM); MIC (Klebsiella STFD 79-6): 0.5 µg/mL (≈ 0.848 µM); MIC (Serratia TUL 78-15): 8 µg/mL (≈ 13.6 µM); MIC [11]: ≤ 0.015 µg/mL; MIC (Proteus morganii K 79-25): 0.5 µg/mL (≈ 0.848 µM); MIC [12]: 0.5 µg/mL (≈ 0.848 µM)
CO/N=C(\C(=O)N[C@@H]1C(=O)N2C(C(=O)O)=C(CSc3nnsc3-c3ccc(C(C)(C)C)cc3)CS[C@H]12)c1csc(N)n1 [Example 2, (Z)-7-[[(2-Amino-4-thiazolyl)(methoxyimino)acetyl]amino]-3-[[[5-[4-(1,1-dimethylethyl)phenyl]-1,2,3-thiadiazol-4-yl]thio]methyl]-8-oxo-5-thia-1-azabicyclo-[4.2.0]oct-2-ene-2-carboxylic acid] | 32 (≈ 49.5 µM) | > 256 | 0.5 (≈ 0.774 µM) | 4 (≈ 6.19 µM) | > 256 | 256 (≈ 396 µM) | 128 (≈ 198 µM) | > 256 | ≤ 0.03 | 8 (≈ 12.4 µM) | 32 (≈ 49.5 µM) | 0.25 (≈ 0.387 µM) | 16 (≈ 24.8 µM) | 8 (≈ 12.4 µM) | 0.06 (≈ 0.0929 µM) | 0.06 (≈ 0.0929 µM) | 0.06 (≈ 0.0929 µM) | 256 (≈ 396 µM) | 2 (≈ 3.1 µM) | 1 (≈ 1.55 µM) | MIC [10]: 16 µg/mL (≈ 24.8 µM); MIC (Klebsiella STFD 79-6): 0.06 µg/mL (≈ 0.0929 µM); MIC (Serratia TUL 78-15): 32 µg/mL (≈ 49.5 µM); MIC [11]: ≤ 0.03 µg/mL; MIC (Proteus morganii K 79-25): 0.5 µg/mL (≈ 0.774 µM); MIC [12]: 0.25 µg/mL (≈ 0.387 µM); MIC [13]: 0.06 µg/mL (≈ 0.0929 µM)
CO/N=C(\C(=O)N[C@@H]1C(=O)N2C(C(=O)O)=C(CSc3nnsc3C(C)(C)C)CS[C@H]12)c1csc(N)n1 [Example 6, (Z)-7-[[(2-Amino-4-thiazolyl)(methoxyimino)acetyl]amino]-3-[[[5-(1,1-dimethylethyl)-1,2,3-thiadiazol-4-yl]thio]methyl]-8-oxo-5-thia-1-azabicyclo[4.2.0]oct-2-ene-2-carboxylic acid] | 16 (≈ 28.1 µM) | 64 (≈ 112 µM) | 4 (≈ 7.02 µM) | 8 (≈ 14 µM) | 64 (≈ 112 µM) | 256 (≈ 449 µM) | 32 (≈ 56.2 µM) | 128 (≈ 225 µM) | – | 2 (≈ 3.51 µM) | 8 (≈ 14 µM) | 0.5 (≈ 0.878 µM) | 32 (≈ 56.2 µM) | 1 (≈ 1.76 µM) | 0.25 (≈ 0.439 µM) | 2 (≈ 3.51 µM) | 1 (≈ 1.76 µM) | 128 (≈ 225 µM) | 1 (≈ 1.76 µM) | 2 (≈ 3.51 µM) | MIC [2]: 1 µg/mL (≈ 1.76 µM); MIC [10]: 4 µg/mL (≈ 7.02 µM); MIC (Proteus rettgheri K 77-6): ≤ 0.12 µg/mL; MIC (Klebsiella STFD 79-6): 2 µg/mL (≈ 3.51 µM); MIC (Serratia TUL 78-15): 8 µg/mL (≈ 14 µM); MIC [4]: 5 µg/mL (≈ 8.78 µM); MIC [11]: 0.5 µg/mL (≈ 0.878 µM); MIC (Proteus morganii K 79-25): 16 µg/mL (≈ 28.1 µM); MIC [12]: 0.5 µg/mL (≈ 0.878 µM); MIC [13]: 0.25 µg/mL (≈ 0.439 µM)
